Data published in US7566717B2, “Substituted heterocyclic compounds” (Gilead Sciences, Inc., priority 2003, dated 2009).

These molecules were tested on Rat heart mitochondria (palmitoyl CoA oxidation) (assay: Mitochondrial assay: palmitoyl CoA oxidation). Conditions: at 100 μM of test compound, 1-C14 palmitoyl CoA oxidation, 15 min at 30° C.
Assay type: biochemical
Method: Rat heart mitochondria were isolated by the method of Nedergard and Cannon (Methods in Enzymol. 55, 3, 1979).
Palmitoyl CoA oxidation—The Palmityl CoA oxidation was carried out in a total volume of 100 micro liters containing the following agents: 110 mM KCl, 33 mM Tris buffer at pH 8, 2 mM KPi, 2 mM MgCl2, 0.1 mM EDTA, 14.7 microM defatted BSA, 0.5 mM malic acid, 13 mM carnitine, 1 mM ADP, 52 micrograms of mitochondrial protein, and 16 microM 1-C14 palmitoyl CoA (Sp. Activity 60 mCi/mmole; 20 microCi/ml, using 5 microliters per assay). The compounds of this invention were added in a DMSO solution at the following concentrations: 100 micro molar, 30 micro molar, and 3 micro molar. In each assay, a DMSO control was used. After 15 min at 30° C., the enzymatic reaction was centrifuged (20,000 g for 1 min), and 70 microliters of the supernatant was added to an activated reverse phase silicic acid column (approximately 0.5 ml of silicic acid). The column was eluted with 2 ml of water, and 0.5 ml of the eluent was used for scintillation counting to determine the amount of C^14 trapped as C^14 bicarbonate ion.

Row | Compound | Inhibition [%]
1 | Cc1cccc(C)c1NC(=O)CN1CCN(CC(O)CC(=O)Nc2ccccc2F)CC1 (stereo not drawn) [4-(4-{[N-(2,6-dimethylphenyl)carbamoyl]methyl}piperazinyl)-3-hydroxy-N-(2-fluorophenyl)butanamide] | 36
2 | Cc1cccc(C)c1NC(=O)CN1CCN(CC(O)CC2CCCCC2)CC1 (stereo not drawn) [N-(2,6-dimethylphenyl)-2-[4-(3-cyclohexyl-2-hydroxypropyl)piperazinyl]acetamide] | 8
3 | Cc1cccc(C)c1NC(=O)CN1CCN(CC(O)CNC(=O)c2ccccc2F)CC1 (stereo not drawn) [N-(2,6-dimethylphenyl)-2-(4-{3-[(2-fluorophenyl)carbonylamino]-2-hydroxypropyl}piperazinyl)acetamide] | 24
